Patent publication EP4458977A1, “SELF-ASSEMBLING PEPTIDE AMPHIPHILES AS RETROVIRAL TRANSDUCTION ENHANCERS” (Max-Planck-Gesellschaft zur Förderung der Wissenschaften …, priority 2023, dated 2024)
Entries after “also recorded” stand apart in the source; their conditions may differ. Like-named read-outs stand apart in the source and are kept apart here. Where a SMILES comes first, the peptide text is derived from it. The star is where a group is joined. X1 = CC/C=C\C/C=C\C/C=C\C/C=C\C/C=C\CCCC(=O)*; 2‑naphthylmethyl = c1ccc2cc(C*)ccc2c1; Fmoc = O=C(OCC1c2ccccc2-c2ccccc21)*; Lauroyl = CCCCCCCCCCCC(=O)*; Nonanoyl = CCCCCCCCC(=O)*

What was measured:
[1] = ATR-FT-IR determination of β-sheet content; assay type: physicochemical; settings: 1 mg/mL in PBS lyophilized; integral at 1630 cm^-1 relative to 1650-1700 cm^-1
How it was run: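 From second-derivative spectra, β-sheet amount is the 1630 cm-1 integral over the 1650-1700 cm-1 (native) region. Spectra were taken on solid, lyophilized fibrils via diamond-crystal ATR, averaging 64 scans at 2 cm^-1 resolution.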

[2] = Thioflavin T (ThT) fluorescence assay; assay type: physicochemical; settings: relative to PBS control
Description: Transmission electron microscopy (TEM) measurements, Thioflavin (ThT), zeta-potential measurements for fibril characterization were prepared and conducted according to prior art procedures. […] Fibrils were defined as distinct, if no visible structures could be identified in fluorescence and brightfield microscopy. A peptide fibril was considered as ThT-active if the fluorescence intensity was at least twice as strong compared to the control (PBS containing 10% DMSO).

[3] = Zeta-potential measurement (dynamic light scattering); assay type: physicochemical; settings: for Count Rate / kcps: derived count rate of scattered light during zeta-potential measurements
Description: Zeta-potential: 60 µL of the peptides (1 mg mL-1) were diluted in 600 µL, 1 mM KCI solution and placed in a disposable folded capillary cuvette. All zeta-potential measurements were conducted by dynamic light scattering technology (Zetasizer, Malvern Instruments) and in triplicates for each sample. The derived count rate of the zeta potential measurement was used as information on the light scattering intensity and turbidity of the sample as a further indicator for microscopic aggregation.

HeLa cells = test: Confocal laser scanning microscopy and degradation study with PA library and HeLa cells; assay type: cell-based; settings: for association with cellular membranes: 2 µg added to 20.000 HeLa cells, 30 min; for degradability (in words) / Degradability / % (rel. to initial particles > 10 µm^2): HeLa cells; for degradability (in words): 3 days; for Degradability / % (rel. to initial particles > 10 µm^2): 3 d relative to 30 min; for aggregate number decreases / degraded in presence of HeLa cells within 3 days: d3 relative to d0
How it was run: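 HeLa cells (20,000/well) got Proteostat-stained PAs (2 µg peptide per 20.000 cells) with Hoechst nuclear stain, 30 min at 37°C, PBS-washed, then held 3 d at 37°C unwashed. Confocal imaging at d0 and d3 counted aggregates >10 µm^2 in 1008 × 1008 µm, three technical replicates. Degradation taken as d3/d0 aggregate number.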

[4] = Fluorescence microscopy of ThT-stained fibrils (µm-sized aggregates); assay type: physicochemical; settings: for fluorescent, µm-sized aggregates (ThT staining): 1 mg/mL stained with 50 µM ThT
How it was run: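 Fibrils (1 mg mL^-1) mixed 1:9 with 50 µM ThT, giving 0.1 mg mL^-1 stained fibrils on glass. Imaged under 10x air objective with excitation 480/40 nm and emission 527/30 nm. Fibrils called distinct when no visible structures appeared in fluorescence or brightfield.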

HIV-1 = settings: for Infectivity enhancing N fold at 1.3 µM: relative to virus only; for enhancement of HIV-1 infection / transduction (in words): 6.5 µM, 1.3 µM, 0.26 µM;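 for all read-outs here: TZM-bl reporter cells exposed to HIV-1 with peptide fibrils, infection read out as β-galactosidase luminescence, compared with virus alone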
Description: HIV-1 Infection Assay with TZM-bl cells: The effect of peptide fibrils on HIV-1 infection was studied via a luminescence assay for β-galactosidase, which was reported by TZM-bl cells upon infection. The HIV-1 infection assay was conducted in three technical replicates and repeated in three independent experiments unless stated otherwise.

[5] = Zeta-potential measurement (dynamic light scattering); assay type: physicochemical
[6] = TEM of peptide assemblies (fibril formation / assembly); assay type: physicochemical; parameters: key to Fibril Formation: "1" means fibril formation observed; "0" means no fibrils observed; settings: for TEM morphology (in words): 1 mg/mL in PBS; for Assembly without hydrophob residue: corresponding peptide without hydrophobic moiety; for Assembly: peptide amphiphile; for Fibril Formation: via TEM, hydrophobic moiety exchange
How it was run: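 Peptides predissolved in DMSO at 10 mg/mL (stock), diluted in PBS to 650 µM or 1 mg/mL final and incubated 1 d at rt (20–25 °C) to form fibrils. Other concentrations obtained by diluting preformed fibrils; assemblies imaged by TEM.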

| Compound | β-sheet amount [1] [%] | N-fold ThT-fluorescence [2] | zeta-potential (in words) [3] | Count Rate / kcps [3] [kcps] | association with cellular membranes (HeLa cells) | degradability (in words) (HeLa cells) | Degradability / % (rel. to initial particles > 10 µm^2) (HeLa cells) [%] | aggregate number decreases / degraded in presence of HeLa cells within 3 days (HeLa cells) [%] | formation of µm-sized aggregates in aqueous medium / PBS (in words) [4] | fluorescent, µm-sized aggregates (ThT staining) [4] | enhances infectivity at 1.3 µM concentration, times more efficient compared to virus only infection (HIV-1) [times] | Infectivity enhancing N fold at 1.3 µM (HIV-1) [N fold] | Zeta-Potential / mV [5] [mV] | TEM morphology (in words) [6] | Assembly without hydrophob residue [6] | Assembly [6] | Fibril Formation [6] | infectivity enhancement at 1.3 µM concentration compared to virus only infection (in words) (HIV-1) | enhancement of HIV-1 infection / transduction (in words) (HIV-1) | enhancement of HIV-1 infection / transduction (in words) (HIV-1; listed as peptide amphiphile with eicosapentaenoic acid (EPA)) |
| --- | --- | --- | --- | --- | --- | --- | --- | --- | --- | --- | --- | --- | --- | --- | --- | --- | --- | --- | --- | --- |
| CCCCCCCCCCCC(=O)N[C@H](C(=O)N[C@H](C(=O)N[C@H](C(=O)N[C@@H](C)C(=O)N[C@@H](C)C(=O)N[C@@H](C)C(=O)N[C@@H](CCCCN)C(=O)N[C@@H](CCCCN)C(=O)N[C@@H](CCCCN)C(N)=O)C(C)C)C(C)C)C(C)C [Pat7] (Lauroyl-VVVAAAKKK-NH2) | 49 | 185.7 | positive zeta-potential | 3558.1 | association with cellular membranes | non-degradable PA | -32 | 32 | form µm-sized aggregates | fluorescent, µm-sized aggregates | 6 | 6±1 | 19.4 | able to form fibrils; also recorded: fibrillar morphologies | No | Yes | 1 | – | – | – |
| CCCCCCCCC(=O)N[C@H](C(=O)N[C@H](C(=O)N[C@H](C(=O)N[C@@H](C)C(=O)N[C@@H](C)C(=O)N[C@@H](C)C(=O)N[C@@H](CCCCN)C(=O)N[C@@H](CCCCN)C(=O)N[C@@H](CCCCN)C(N)=O)C(C)C)C(C)C)C(C)C [Pat8] (Nonanoyl-VVVAAAKKK-NH2) | 49 | 37.1 | – | 77.2 | association with cellular membranes | non-degradable PA | 78 | 78 | failed to form µm-sized aggregates in aqueous medium | fluorescent, µm-sized aggregates | – | 2±0 | 13.5 | formed fibrils in aqueous medium; also recorded: fibrillar morphologies | No | Yes | 1 | does not enhance infectivity | – | – |
| CC/C=C\C/C=C\C/C=C\C/C=C\C/C=C\CCCC(=O)N[C@H](C(=O)N[C@H](C(=O)N[C@H](C(=O)N[C@@H](C)C(=O)N[C@@H](C)C(=O)N[C@@H](C)C(=O)N[C@@H](CCCCN)C(=O)N[C@@H](CCCCN)C(=O)N[C@@H](CCCCN)C(N)=O)C(C)C)C(C)C)C(C)C [Pat10] (X1-VVVAAAKKK-NH2) | 51 | 61.9 | positive zeta-potential | 6069.8 | association with cellular membranes | degradable PA | 99 | 99 | form µm-sized aggregates | fluorescent, µm-sized aggregates | 12 | 12±1 | 16.9 | able to form fibrils; also recorded: condensed spherical structures composed of fibrils | No | Yes | 1 | – | showed infectivity enhancement | even stronger infectivity enhancement than the reference compounds EF-C or PA1 |
| CC(C)[C@H](NC(=O)OCC1c2ccccc2-c2ccccc21)C(=O)N[C@H](C(=O)N[C@H](C(=O)N[C@@H](C)C(=O)N[C@@H](C)C(=O)N[C@@H](C)C(=O)N[C@@H](CCCCN)C(=O)N[C@@H](CCCCN)C(=O)N[C@@H](CCCCN)C(N)=O)C(C)C)C(C)C [Pat12] (Fmoc-VVVAAAKKK-NH2) | 52 | 269.9 | positive zeta-potential | 509.5 | association with cellular membranes | non-degradable PA | 28 | 28 | form µm-sized aggregates | fluorescent, µm-sized aggregates | 5 | 5±1 | 15.2 | able to form fibrils; also recorded: fibrillar morphologies | No | Yes | 1 | – | showed infectivity enhancement | – |
| Nap-VVVAAAKKK-NH2 ({2‑naphthylmethyl}-VVVAAAKKK-NH2; SMILES CC(C)[C@H](NCc1ccc2ccccc2c1)C(=O)N[C@H](C(=O)N[C@H](C(=O)N[C@@H](C)C(=O)N[C@@H](C)C(=O)N[C@@H](C)C(=O)N[C@@H](CCCCN)C(=O)N[C@@H](CCCCN)C(=O)N[C@@H](CCCCN)C(N)=O)C(C)C)C(C)C) [Pat13] | 46 | 1.3 | almost neutral zeta-potential | 9.3 | – | – | – | – | failed to form µm-sized aggregates in aqueous medium | – | – | 1±1 | 1.2 | formed fibrils in aqueous medium | No | Yes | 1 | does not enhance infectivity | – | – |
